We go through three sequences from patent US12018252B2, “Methods and compositions for identifying neoantigens for use in treating cancer” (Arizona Board of Regents on Behalf of Arizona State …, priority 2019, dated 2024).

One experiment concerns 4T1 cells. Nature of the experiment: BALB/C-4T1 mouse breast tumor model: immunization then tumor challenge. The format is in vivo. The settings on record: 4T1-BALB/c. The procedure: BALB/c and C57BL/6 mice were from Charles River Laboratories or Jackson Laboratories. […] Tumor volumes were measured and calculated by (Length^2×Width/2) daily after the size was larger than 1 mm^3. Breeding pairs of BALB-neuT and FVB-neuN (FVB/N-Tg (MMTVneu) 202Mul) mice were obtained from Joseph Lustgarten, Mayo Clinic Arizona. Mice were monitored weekly for the tumor incidence after tumor size reached 1 mm^3. All experiments were performed in accordance with protocols approved by the Institutional Animal Care and Use Committee of Arizona State University.
The DNA fragments encoding FS peptides were cloned as a C-terminal fusion into the genetic immunization vectors pCMVi-UB (26) and pCMVi-LSrCOMPTT (27, 28) with the Bgl II and Hind III and mixed with 1:1 ratio as the vaccine antigen. Three adjuvants were encoded by genetic immunization vectors. The pCMVi-mGM-CSF vector expresses the adjuvant mouse granulocyte/macrophage colony-stimulating factor (mGM-CSF) under control of the human cytomegalovirus (CMV) promoter (27). […]. Vectors pCMVi-UB, pCMVi-LSrCOMPTT, pCMVi-LTA (also called pCMVi-LS-LTA-R192G) and pCMVi-LTB are available from the PSI:Biology-Materials Repository DNASU (dnasu.org) at Arizona State University. Additional adjuvants were the class A CpG 2216 single-stranded oligodeoxynucleotide obtained from Sigma and alum from Pierce.
Bullets for biolistic genetic immunization used the gold micronanoplex approach and were prepared as described (30) with the following changes. Two grams of 1-micron gold was used. Prior to addition of N-hydroxysuccinimide and N-(3-dimethylaminopropyl)-N′-ethylcarbodiimide hydrochloride, the gold was resuspended in 20 mL of a 0.1 M solution of 2-(N-morpholino) ethanesulfonic acid (MES), pH 6.0. DNA-gold micronanoplexes were prepared by combining, per bullet, 57 μL of cysteamine-gold solution with precipitated DNA (≤10 μg) that had been resuspended in ≤15 μL of water, and then vortexing for 10 min. To the DNA-cysteamine-gold was added […] of a freshly made solution of PEI-micron gold (167 mg/mL in 0.1 M MES, pH 6, without NaCl). The pelleted micronanoplexes were washed with ethanol prior to resuspension in n-butanol ([…]), followed by bullet formation under nitrogen gas.
For the three MS FS experiments, all mice (n=10 per group) were genetically immunized in the ear by Gene Gun at 8 weeks of age (2 shots/mouse, 60 ng pooled antigens plus 0.25 μg LTAB and 2.5 μg CpG2216 as the adjuvant for each shot) and boosted twice (two days apart) in three weeks with 1 μg pooled antigens plus the same adjuvants dosage. All mice were boosted again in two weeks with 50 μg KLH conjugated MS FS peptides with 50 μg CpG 2216 and 50 ul alum in total 100 ul PBS. […]

In another experiment the test system is B16-F10 cells. In words: C57BL/B16-F10 mouse melanoma model: genetic immunization then tumor challenge. To be noted: B16F10-C57BL6; gene gun genetic immunization; compared to mock/control antigen CPV 172; n=10 per group. It is filed as in vivo.
The mark [1] stands for this setting: gene vaccines three times in two week intervals, 2x10^3 4T1 cells subcutaneous, n=4 per group, vs mock.

With “IPRMQPQASANHCQLLKVMVA [SLAIN2-FS, mouse mis-splicing FS antigen, skips exon 7]”, in the experiment with 4T1 cells (setting [1]), the tumor growth entry is listed as “conferred tumor retardation”.

Regarding “AVLLMCQLYQPWMCKEYYRLL [ZDHHC17, mouse mis-splicing FS antigen, skips exon 16]”, in the experiment with 4T1 cells (setting [1]), the tumor growth result is listed as “did not”.

Consider “TAIIGPNGSGCSGVYCHEEPQGEDSSV [SMC1A 1^4 FS, mouse mis-splicing FS antigen, SMC1A exon 1 joined to exon 4]”, for which, in the experiment with B16-F10 cells, the “tumor growth (tumor volume)” value is reported as “significant retardation of tumor growth”. The tumor growth entry in the experiment on 4T1 cells (gene gun plus KLH-peptide boost, 5x10^3 4T1 cells, n=10 per group) is recorded as “significantly retarded the 4T1 tumor growth”. For the same sequence, the “T cell dependence of protection (CD8 or CD4 T-cell depletion)” value with 4T1 cells (immunized mice depleted with anti CD8 or anti CD4 antibody) was “CD8 T cell dependent”.
